Experimental data as given in paper doi:10.1101/2023.03.24.534094v2 (biorxiv, 2023).
Where two headings read alike, the source gives them in different places.

Experiments:
Assay in all cases: biochemical
CaMK1d = CaMK1d (Homo sapiens, UniProt Q8IU85)
Erk7 = molecular target: T1, Erk7 (Homo sapiens, UniProt Q8TD08)
T1 sequence (Q8TD08 1-544): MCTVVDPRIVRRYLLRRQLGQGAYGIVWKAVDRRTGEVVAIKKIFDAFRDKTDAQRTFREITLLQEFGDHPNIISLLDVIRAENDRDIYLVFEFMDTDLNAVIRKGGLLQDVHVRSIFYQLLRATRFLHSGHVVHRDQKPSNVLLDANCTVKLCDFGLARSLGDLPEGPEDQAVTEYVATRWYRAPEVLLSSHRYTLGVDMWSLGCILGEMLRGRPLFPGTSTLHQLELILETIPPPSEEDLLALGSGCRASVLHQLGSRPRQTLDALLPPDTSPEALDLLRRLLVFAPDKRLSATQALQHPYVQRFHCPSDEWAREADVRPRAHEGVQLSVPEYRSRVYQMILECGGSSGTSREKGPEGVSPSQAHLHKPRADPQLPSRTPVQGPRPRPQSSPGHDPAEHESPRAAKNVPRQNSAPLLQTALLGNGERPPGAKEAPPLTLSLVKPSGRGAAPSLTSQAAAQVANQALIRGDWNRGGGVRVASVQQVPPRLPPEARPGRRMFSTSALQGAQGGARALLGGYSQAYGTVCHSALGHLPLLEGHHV

CaMK2b = CaMK2b (Homo sapiens, UniProt Q13554)
CaMK2b, sequence (Q13554 whole entry): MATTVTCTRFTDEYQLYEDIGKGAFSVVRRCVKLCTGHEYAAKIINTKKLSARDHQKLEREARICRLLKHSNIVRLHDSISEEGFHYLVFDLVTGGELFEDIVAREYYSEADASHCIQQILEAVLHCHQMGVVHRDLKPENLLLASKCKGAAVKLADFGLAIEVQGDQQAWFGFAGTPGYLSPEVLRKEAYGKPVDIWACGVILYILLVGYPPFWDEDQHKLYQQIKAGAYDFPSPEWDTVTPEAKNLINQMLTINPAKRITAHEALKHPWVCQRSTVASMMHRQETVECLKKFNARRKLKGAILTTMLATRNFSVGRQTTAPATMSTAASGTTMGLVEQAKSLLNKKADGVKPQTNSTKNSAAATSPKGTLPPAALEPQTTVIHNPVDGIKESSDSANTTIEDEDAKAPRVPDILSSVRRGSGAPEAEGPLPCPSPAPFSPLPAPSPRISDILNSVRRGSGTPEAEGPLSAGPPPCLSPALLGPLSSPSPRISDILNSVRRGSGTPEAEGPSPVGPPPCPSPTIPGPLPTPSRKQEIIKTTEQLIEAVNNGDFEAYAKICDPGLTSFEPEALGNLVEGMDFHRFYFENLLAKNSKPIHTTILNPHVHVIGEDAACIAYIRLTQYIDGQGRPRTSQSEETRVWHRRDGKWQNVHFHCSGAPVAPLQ

EpHA5 = EpHA5 (Homo sapiens, UniProt P54756)
EpHA5, sequence (P54756 whole entry): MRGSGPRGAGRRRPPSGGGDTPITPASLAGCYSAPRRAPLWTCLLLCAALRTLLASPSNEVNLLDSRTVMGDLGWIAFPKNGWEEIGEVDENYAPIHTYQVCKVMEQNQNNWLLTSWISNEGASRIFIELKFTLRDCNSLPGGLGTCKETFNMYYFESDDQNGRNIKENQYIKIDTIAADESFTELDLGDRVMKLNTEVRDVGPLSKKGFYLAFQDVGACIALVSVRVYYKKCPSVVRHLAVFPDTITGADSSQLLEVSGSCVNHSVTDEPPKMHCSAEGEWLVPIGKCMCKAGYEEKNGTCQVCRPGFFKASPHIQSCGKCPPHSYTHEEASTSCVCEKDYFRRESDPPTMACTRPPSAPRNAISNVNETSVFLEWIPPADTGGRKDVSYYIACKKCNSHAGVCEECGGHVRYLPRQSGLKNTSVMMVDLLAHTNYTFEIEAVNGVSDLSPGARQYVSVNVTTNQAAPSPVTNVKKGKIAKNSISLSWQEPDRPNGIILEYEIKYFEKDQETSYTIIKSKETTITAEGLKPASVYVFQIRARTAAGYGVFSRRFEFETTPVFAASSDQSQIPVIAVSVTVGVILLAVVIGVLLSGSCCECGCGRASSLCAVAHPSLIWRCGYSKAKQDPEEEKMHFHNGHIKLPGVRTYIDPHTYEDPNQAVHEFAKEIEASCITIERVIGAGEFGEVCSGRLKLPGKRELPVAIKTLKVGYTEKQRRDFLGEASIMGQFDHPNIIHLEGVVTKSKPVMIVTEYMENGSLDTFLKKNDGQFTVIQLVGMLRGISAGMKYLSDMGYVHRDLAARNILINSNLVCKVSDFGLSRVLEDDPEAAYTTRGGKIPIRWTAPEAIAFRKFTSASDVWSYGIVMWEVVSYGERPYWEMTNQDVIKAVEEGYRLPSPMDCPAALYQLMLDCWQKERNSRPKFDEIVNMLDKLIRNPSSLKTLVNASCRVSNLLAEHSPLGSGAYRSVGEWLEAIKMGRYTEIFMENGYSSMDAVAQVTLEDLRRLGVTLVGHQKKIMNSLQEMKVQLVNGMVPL

DRAK2 = molecular target: T2, DRAK2 (Homo sapiens, UniProt O94768)
T2 sequence (O94768 1-372): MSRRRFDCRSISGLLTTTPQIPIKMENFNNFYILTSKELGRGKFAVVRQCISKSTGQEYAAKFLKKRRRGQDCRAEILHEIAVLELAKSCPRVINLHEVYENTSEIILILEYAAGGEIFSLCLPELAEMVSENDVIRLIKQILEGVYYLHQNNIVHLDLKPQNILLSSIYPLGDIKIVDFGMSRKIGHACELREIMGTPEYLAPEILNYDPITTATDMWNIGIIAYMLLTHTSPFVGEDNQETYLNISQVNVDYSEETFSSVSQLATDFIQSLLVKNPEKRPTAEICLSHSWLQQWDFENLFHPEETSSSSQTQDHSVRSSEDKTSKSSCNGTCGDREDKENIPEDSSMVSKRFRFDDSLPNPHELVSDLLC

CaMK1g = CaMK1g (Homo sapiens, UniProt Q96NX5)
CaMK1g, sequence (Q96NX5 whole entry): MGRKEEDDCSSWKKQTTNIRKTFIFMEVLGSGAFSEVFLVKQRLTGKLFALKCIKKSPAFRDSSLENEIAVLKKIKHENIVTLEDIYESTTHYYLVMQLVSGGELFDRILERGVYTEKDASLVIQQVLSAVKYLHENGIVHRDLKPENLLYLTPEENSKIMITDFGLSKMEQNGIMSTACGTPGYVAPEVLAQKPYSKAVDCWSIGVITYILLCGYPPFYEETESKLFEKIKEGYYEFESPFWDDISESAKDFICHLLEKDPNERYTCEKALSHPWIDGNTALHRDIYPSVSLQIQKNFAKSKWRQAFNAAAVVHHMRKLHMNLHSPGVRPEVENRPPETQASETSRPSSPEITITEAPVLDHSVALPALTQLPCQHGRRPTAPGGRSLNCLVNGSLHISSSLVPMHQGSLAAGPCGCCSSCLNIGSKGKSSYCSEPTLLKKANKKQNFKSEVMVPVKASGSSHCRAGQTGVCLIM

PLK4 = molecular target: T3, PLK4 (Homo sapiens, UniProt O00444)
T3 sequence (O00444 1-970): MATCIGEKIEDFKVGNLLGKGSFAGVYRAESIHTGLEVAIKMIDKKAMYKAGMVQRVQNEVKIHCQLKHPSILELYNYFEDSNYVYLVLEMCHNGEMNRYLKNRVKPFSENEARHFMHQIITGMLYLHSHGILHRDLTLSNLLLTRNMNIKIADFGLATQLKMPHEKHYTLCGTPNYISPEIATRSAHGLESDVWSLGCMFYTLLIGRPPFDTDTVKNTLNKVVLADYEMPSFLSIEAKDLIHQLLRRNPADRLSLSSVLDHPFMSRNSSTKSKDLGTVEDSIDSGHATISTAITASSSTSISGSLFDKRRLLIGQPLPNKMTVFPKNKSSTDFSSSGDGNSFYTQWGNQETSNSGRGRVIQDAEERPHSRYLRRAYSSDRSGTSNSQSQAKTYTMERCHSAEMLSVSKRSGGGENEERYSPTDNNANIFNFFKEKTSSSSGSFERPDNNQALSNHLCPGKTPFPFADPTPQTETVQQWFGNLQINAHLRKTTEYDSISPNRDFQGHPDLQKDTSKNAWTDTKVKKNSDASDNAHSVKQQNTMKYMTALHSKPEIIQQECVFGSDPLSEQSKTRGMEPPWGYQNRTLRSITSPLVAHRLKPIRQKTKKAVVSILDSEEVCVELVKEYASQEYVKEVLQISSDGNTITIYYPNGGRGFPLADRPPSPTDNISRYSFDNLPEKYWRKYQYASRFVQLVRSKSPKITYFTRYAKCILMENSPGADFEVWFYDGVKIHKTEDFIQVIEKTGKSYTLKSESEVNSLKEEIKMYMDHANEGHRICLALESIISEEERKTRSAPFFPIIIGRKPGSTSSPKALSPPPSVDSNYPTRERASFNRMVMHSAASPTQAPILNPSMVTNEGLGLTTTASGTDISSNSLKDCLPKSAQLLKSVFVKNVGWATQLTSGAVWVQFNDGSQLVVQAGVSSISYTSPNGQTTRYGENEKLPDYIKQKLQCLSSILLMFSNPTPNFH

NQO2A = molecular target: T4, NQO2A (Homo sapiens, UniProt P16083)
T4 sequence (P16083 1-231): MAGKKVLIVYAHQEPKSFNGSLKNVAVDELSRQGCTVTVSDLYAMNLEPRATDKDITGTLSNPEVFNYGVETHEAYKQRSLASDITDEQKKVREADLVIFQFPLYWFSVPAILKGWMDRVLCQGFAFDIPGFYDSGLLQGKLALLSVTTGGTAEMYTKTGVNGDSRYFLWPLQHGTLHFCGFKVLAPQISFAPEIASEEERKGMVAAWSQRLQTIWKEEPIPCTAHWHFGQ

CaMK1d, sequence (Q8IU85 whole entry): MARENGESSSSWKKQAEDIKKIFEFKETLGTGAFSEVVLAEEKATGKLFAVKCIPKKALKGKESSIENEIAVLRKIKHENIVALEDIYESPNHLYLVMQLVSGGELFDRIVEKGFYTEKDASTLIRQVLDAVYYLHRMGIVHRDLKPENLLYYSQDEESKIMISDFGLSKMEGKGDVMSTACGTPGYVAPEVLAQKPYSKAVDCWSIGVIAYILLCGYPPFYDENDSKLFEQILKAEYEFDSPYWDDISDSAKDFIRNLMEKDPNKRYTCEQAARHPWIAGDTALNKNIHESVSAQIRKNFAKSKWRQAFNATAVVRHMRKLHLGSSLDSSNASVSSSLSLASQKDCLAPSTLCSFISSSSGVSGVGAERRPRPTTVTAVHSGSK

Question: With `CNc1ncc2cc(-c3ccc(-c4cccc(C)n4)cc3Cl)c(=O)n(CC3OCC(N)CO3)c2n1` (stereo not shown) [compound 2, G-5555] as the compound, how does the “dTm G-5555 (2)” value (CaMK1d; 10 µM, binder) read?
Answer: 4.5 °C

Question: What about the “dTm G-5555 (2)” value (Erk7; 10 µM, binder) of the same compound?
Answer: 0.3 °C

Question: And the “dTm G-5555 (2)” value (CaMK2b; 10 µM, binder)?
Answer: -1.7 °C

Question: What about the “dTm G-5555 (2)” value (EpHA5; 10 µM, binder) of the same compound?
Answer: 2.7 °C

Question: And the “dTm G-5555 (2)” value (DRAK2; 10 µM, binder)?
Answer: -0.3 °C

Question: What about the “dTm G-5555 (2)” value (CaMK1g; 10 µM, binder) of the same compound?
Answer: 2.3 °C

Question: And the “dTm G-5555 (2)” value (PLK4; 10 µM, binder)?
Answer: 3.4 °C

Question: Which results are given for `CNc1ncc2cc(-c3ccccc3Cl)c(=O)n(CCCCN)c2n1` [compound 4, 8-(4-Aminobutyl)-6-(2-chlorophenyl)-2-(methylamino)pyrido[2,3-d]pyrimidin-7(8H)-one]?
Answer: ΔTm at 10 µM (CaMK1d; read-out: dTm MR21 (4)): 2.7 °C; ΔTm at 10 µM (Erk7; read-out: dTm MR21 (4)): 0.8 °C; ΔTm at 10 µM (CaMK2b; read-out: dTm MR21 (4)): -1.1 °C; ΔTm at 10 µM (DRAK2; read-out: dTm MR21 (4)): -0.5 °C; ΔTm at 10 µM (NQO2A; read-out: dTm MR21 (4)): -1 °C; ΔTm at 10 µM (CaMK1g; read-out: dTm MR21 (4)): -0.1 °C; ΔTm at 10 µM (PLK4; read-out: dTm MR21 (4)): 0 °C

Question: Which results are given for `CNc1ncc2cc(-c3cc(F)ccc3F)c(=O)n(CCCCN)c2n1` [compound 5, 8-(4-Aminobutyl)-6-(2,5-difluorophenyl)-2-(methylamino)pyrido[2,3-d]pyrimidin-7(8H)-one]?
Answer: ΔTm at 10 µM (CaMK1d; read-out: dTm MR22 (5)): -1.2 °C; ΔTm at 10 µM (Erk7; read-out: dTm MR22 (5)): -1.5 °C; ΔTm at 10 µM (CaMK2b; read-out: dTm MR22 (5)): -0.6 °C; ΔTm at 10 µM (DRAK2; read-out: dTm MR22 (5)): 0.1 °C; ΔTm at 10 µM (NQO2A; read-out: dTm MR22 (5)): -0.2 °C; ΔTm at 10 µM (CaMK1g; read-out: dTm MR22 (5)): -0.4 °C; ΔTm at 10 µM (PLK4; read-out: dTm MR22 (5)): 0.3 °C

Question: How did the ΔTm at 10 µM (CaMK1d; read-out: dTm 6) turn out when `CNc1ncc2cc(-c3cc(Br)ccc3Cl)c(=O)n(CCCCN)c2n1` [compound 6, 8-(4-Aminobutyl)-6-(5-bromo-2-chlorophenyl)-2-(methylamino)pyrido[2,3-d]pyrimidin-7(8H)-one] was run?
Answer: 2.1 °C

Question: And the ΔTm at 10 µM (Erk7; read-out: dTm 6)?
Answer: 0.3 °C

Question: What about the ΔTm at 10 µM (CaMK2b; read-out: dTm 6) of the same compound?
Answer: 0.1 °C

Question: What about the ΔTm at 10 µM (EpHA5; read-out: dTm 6) of the same compound?
Answer: 4.5 °C

Question: What about the ΔTm at 10 µM (DRAK2; read-out: dTm 6) of the same compound?
Answer: -0.2 °C

Question: What about the ΔTm at 10 µM (NQO2A; read-out: dTm 6) of the same compound?
Answer: 0 °C

Question: What about the ΔTm at 10 µM (CaMK1g; read-out: dTm 6) of the same compound?
Answer: 1.2 °C

Question: What about the ΔTm at 10 µM (PLK4; read-out: dTm 6) of the same compound?
Answer: 0.4 °C

Question: Which ΔTm at 10 µM (CaMK1d; read-out: dTm 7) does the source give for `CNc1ncc2cc(-c3cc(Br)ccc3Cl)c(=O)n(C[C@H]3OC[C@H](N)CO3)c2n1` [compound 7, 8-(((2r,5r)-5-Amino-1,3-dioxan-2-yl)methyl)-6-(5-bromo-2-chlorophenyl)-2-(methylamino)pyrido[2,3-d]pyrimidin-7(8H)-one] here?
Answer: 0.4 °C

Question: And the ΔTm at 10 µM (Erk7; read-out: dTm 7)?
Answer: 0.1 °C

Question: What about the ΔTm at 10 µM (CaMK2b; read-out: dTm 7) of the same compound?
Answer: 0.2 °C

Question: And the ΔTm at 10 µM (EpHA5; read-out: dTm 7)?
Answer: 3.2 °C

Question: What about the ΔTm at 10 µM (DRAK2; read-out: dTm 7) of the same compound?
Answer: 0.1 °C

Question: What about the ΔTm at 10 µM (NQO2A; read-out: dTm 7) of the same compound?
Answer: 0.6 °C

Question: What about the ΔTm at 10 µM (CaMK1g; read-out: dTm 7) of the same compound?
Answer: 0.3 °C

Question: What about the ΔTm at 10 µM (PLK4; read-out: dTm 7) of the same compound?
Answer: 0.4 °C
